# Columns and labels:
# Format in all cases: in vivo, rats
# [1] = system: Neopterin; test: Neopterin decreasing property in experimental diabetes; conditions: H.G. animals, standard drug
# Experimental: (§1) Before utilizing the test drug for human consumption the pre-clinical safety and efficacy profile of single plant candidate extract as well as in combined form was conducted following standard norms. The biological property of test formulation was validated in streptozotocin (STZ) induced diabetes animal model which also helped in evaluation of vascular complications caused due to diabetes. The effect of test drug was assessed on glucose levels, insulin level, glycosylated hemoglobin, and pro-inflammatory cytokines, and the most important bio-marker neopterin including various neuro-psychological assessments. The mechanism based study clearly indicated the neopterin decreasing potential of test formulation which exerted neuro-protective activity, better glycemic control, anti-atherosclerotic, anti-inflammatory, anti-oxidant effects in STZ induced diabetes among the animals. Further, its therapeutic activity has also been validated in neurogenic dementia and other cognitive deficits associated with diabetes mellitus.
# [2] = system: Hemoglobin; test: Glycation of hemoglobin; conditions: H.G. animals; standard drug
# Experimental: Before utilizing the test drug for human consumption the pre-clinical safety and efficacy profile of single plant candidate extract as well as in combined form was conducted following standard norms. […] The effect of test drug was assessed on glucose levels, insulin level, glycosylated hemoglobin, and pro-inflammatory cytokines, and the most important bio-marker neopterin including various neuro-psychological assessments. […] Aldose Reductase Activity and Glycation of Hemoglobin Following Test Formulation Treatment
# [3] = system: Glycogen; test: Restoration of glycogen in liver and skeletal muscle; conditions: H.G. animals; standard drug
# Experimental: (§2) Before utilizing the test drug for human consumption the pre-clinical safety and efficacy profile of single plant candidate extract as well as in combined form was conducted following standard norms. […] The effect of test drug was assessed on glucose levels, insulin level, glycosylated hemoglobin, and pro-inflammatory cytokines, and the most important bio-marker neopterin including various neuro-psychological assessments.
# [4] = system: Insulin; test: Insulin secretagogues property in diabetic animals; conditions: H.G. animals; standard drug
# Experimental: as §1
# [5] = system: SOD; test: Attenuation of oxidative stress: SOD; parameters: SOD, Brain / SOD, Heart / SOD, Liver / SOD, Kidney: unit not given here; conditions: H.G. animals; standard drug
# Experimental: as §1, with “mellitus. Attenuation of Oxidative Stress Following Treatment with Test Formulation—Restriction of SOD” for “mellitus.”
# [6] = system: TBARS; test: Attenuation of oxidative stress: TBARS formation; parameters: TBARS formation, Brain / TBARS formation, Heart / TBARS formation, Liver / TBARS formation, Kidney: unit not given here; conditions: H.G. animals; standard drug
# Experimental: as §1, with “mellitus. Attenuation of Oxidative Stress Following Treatment with Test Formation—Reduction in TBARS Formation” for “mellitus.”
# [7] = system: Triglycerides; test: Anti-hyperlipidemic activity on triglycerides; conditions: H.G. animals, standard drug
# Experimental: as §1
# [8] = Effect on body weight; conditions: H.G. animals, standard drug, in g (unit assumed)
# Experimental: as §2
# [9] = system: Creatinine, Urea; test: Effect on renal function; conditions: H.G. animals; standard drug
# Experimental: as §1, with “mellitus. Effect of Test Formulation on Renal Function” for “mellitus.”
# [10] = system: HDL-c, VLDL-c, LDL-c; test: Lipoprotein profile and assessment of atherosclerosis; parameters: HDL-c / VLDL-c / LDL-c: unit not given here; conditions: H.G. animals; standard drug
# Experimental: as §2
# [11] = system: G-6-P; test: Regulation of key enzymes in gluconeogenesis: G-6-P; conditions: H.G. animals; standard drug
# Experimental: as §1
# [12] = system: Cholesterol; test: Anti-hyperlipidemic activity: cholesterol; conditions: H.G. animals, standard drug
# Experimental: as §1
Compound,Neopterin ([1]; 7th day),Neopterin ([1]; 14th Day),Glycated Hb [2],Hb [2],"Glycogen content, Liver [3]","Glycogen content, Skeletal muscle [3]",Insulin [4],"SOD, Brain [5]","SOD, Heart [5]","SOD, Kidney [5]","SOD, Liver [5]","SOD, Pancrease [5]","TBARS formation, Brain [6]","TBARS formation, Heart [6]","TBARS formation, Kidney [6]","TBARS formation, Liver [6]","TBARS formation, Pancrease [6]",Triglycerides ([7]; 0 days),Triglycerides ([7]; 7th day),Triglycerides ([7]; 14th Day),further results
CCc1ccc(CCOc2ccc(CC3SC(=O)NC3=O)cc2)nc1 (stereo not drawn) [Pioglitazone],9.13 ± 2.10 nmol/L,8.02 ± 2.01 nmol/L,0.53 ± 0.07 mg/g of Hb,10.09 ± 1.85 g/dL,975.00 ± 43.14 nM/Mg of Tissue,42.02 ± 7.26 nM/Mg of Tissue,105.31 ± 9.10 pg/L,19.33 ± 3.66,15.83 ± 5.83,16.67 ± 1.86,13.50 ± 1.76,6.91 ± 0.22,52.66 ± 3.55,61.83 ± 4.52,56.33 ± 7.93,82.50 ± 2.84,87.67 ± 7.41,133.35 ± 09.77 mg/dL,117.50 ± 9.02 mg/dL,71.30 ± 6.26 mg/dL,"Body weight ([8]; 0th Day): 200.00 ± 4.65; Body weight ([8]; 7th Day): 178.80 ± 4.00; Body weight ([8]; 14th Day): 169.13 ± 2.84; Creatinine [9]: 3.20 ± 0.09 mg/dL; Urea [9]: 48.00 ± 2.00 mg/dL; Anti-atherogenic index [10]: 10.02 ± 5.23; Atherogenic Index [10]: 2.20 ± 0.35; HDL-c [10]: 31.44 ± 2.85; LDL-c [10]: 35.11 ± 7.29; VLDL-c [10]: 17.86 ± 2.05; G-6-P, Kidney [11]: 45.08 ± 4.76 μm/min/mg of protein; G-6-P, Liver [11]: 68.56 ± 7.51 μm/min/mg of protein; Cholesterol ([12]; 0 days): 112.33 ± 7.50 mg/dL; Cholesterol ([12]; 7th day): 94.23 ± 8.23 mg/dL; Cholesterol ([12]; 14th Day): 81.41 ± 9.94 mg/dL"
CN(C)C(=N)N=C(N)N [Metformin],8.90 ± 1.87 nmol/L,9.11 ± 1.39 nmol/L,0.44 ± 0.04 mg/g of Hb,10.06 ± 0.06 g/dL,1095.03 ± 63.10 nM/Mg of Tissue,86.98 ± 12.80 nM/Mg of Tissue,109.24 ± 12.13 pg/L,19.83 ± 3.56,14.33 ± 5.13,16.00 ± 2.37,15.33 ± 0.86,7.01 ± 0.46,48.08 ± 3.42,62.33 ± 4.81,56.74 ± 5.07,80.83 ± 9.17,83.17 ± 7.24,134.77 ± 14.06 mg/dL,123.32 ± 9.51 mg/dL,102.50 ± 11.75 mg/dL,"Body weight ([8]; 0th Day): 207.25 ± 6.44; Creatinine [9]: 3.18 ± 0.05 mg/dL; Urea [9]: 45.45 ± 5.25 mg/dL; HDL-c [10]: 27.68 ± 3.51; LDL-c [10]: 41.38 ± 4.26; VLDL-c [10]: 22.10 ± 3.15; G-6-P, Kidney [11]: 41.85 ± 7.71 μm/min/mg of protein; G-6-P, Liver [11]: 57.49 ± 8.17 μm/min/mg of protein; Cholesterol ([12]; 0 days): 110.33 ± 9.55 mg/dL; Cholesterol ([12]; 7th day): 100.00 ± 5.63 mg/dL; Cholesterol ([12]; 14th Day): 88.17 ± 4.79 mg/dL"

# Source: patent publication US10149879B2 (priority 2014, dated 2018)
